Conditions: Liquid, DSC

CCCCC/C=C\C/C=C\CCCCCCCC(=O)OCC [ethyl linoleate]
Conditions | vapor or sublimation pressure [kPa]
486.64 K | 1.33
501.94 K | 2.67
510.65 K | 4
515.7 K | 5.33
520.91 K | 6.67
527.47 K | 8
537.39 K | 9.33

CCCCCCCCCCCCCC(=O)OCC [ethyl tetradecanoate]
Conditions | vapor or sublimation pressure [kPa]
446.06 K | 1.33
460.03 K | 2.67
470.26 K | 4
476.75 K | 5.33
481.32 K | 6.67
487.01 K | 8
492.47 K | 9.33

CCCCCCCCCCCCCCCCCC(=O)OCC [ethyl octadecanoate]
Conditions | vapor or sublimation pressure [kPa]
490.97 K | 1.33
505.55 K | 2.67
512.98 K | 4
520.56 K | 5.33
524.45 K | 6.67
525.78 K | 8
533.97 K | 9.33

CCCCCCCCCCCCCCCC(=O)OCC [ethyl hexadecanoate]
Conditions | vapor or sublimation pressure [kPa]
464.49 K | 1.33
481.9 K | 2.67
495.23 K | 4
502.27 K | 5.33
508.1 K | 6.67
512.23 K | 8
515.13 K | 9.33

CCCCCCCC/C=C\CCCCCCCC(=O)OCC [ethyl (Z)-9-octadeceneoate]
Conditions | vapor or sublimation pressure [kPa]
486.64 K | 1.33
500.98 K | 2.67
508.03 K | 4
514.61 K | 5.33
523.69 K | 6.67
528.56 K | 8
536.83 K | 9.33

CCCCCCCCCCCC(=O)OCC [ethyl dodecanoate]
Conditions | vapor or sublimation pressure [kPa]
420.05 K | 1.33
432.13 K | 2.67
443.41 K | 4
451.05 K | 5.33
456.47 K | 6.67
462.44 K | 8
464.35 K | 9.33

Source: the NIST ThermoML archive (doi:10.1016/j.jct.2011.01.017)
